In patent US20050059718A1, “Methods of using zonisamide as an adjunctive therapy for partial seizures” (priority 2003, published 2005):
Entries after “also recorded” stand apart in the source; their conditions may differ.

Assays:
[1] = From the text: The clinical manifestations of myeloma vary from smoldering myeloma to symptomatic plasma cell dyscrasia. A lot of variables, alone or in combination, have been used as a discriminating index of malignant proliferation of B-lymphocytes or plasma cells.
[2] = patients; cited from earlier work
[3] = system: carbonic anhydrase; settings: relative to acetazolamide; cited from earlier work
[4] = system: dopaminergic and serotonergic neurotransmission; settings: in vivo microdialysis; cited from earlier work
[5] = patients on regular dosages; cited from earlier work
[6] = system: T-type Ca2+ currents; settings: in vitro; cited from earlier work
[7] = cited from earlier work
[8] = system: rat hippocampal slices; settings: 10-30 μg/mL; cited from earlier work
[9] = system: cultured mouse spinal cord neurons; settings: 10-30 μg/mL, cited from earlier work
[10] = system: sodium channels; settings: in vitro; cited from earlier work
[11] = system: GABA/benzodiazepine receptor ionophore complex; settings: in vitro; no change in chloride flux; cited from earlier work
[12] = system: liver enzymes; settings: cited from earlier work

## CCCC(CCC)C(=O)[O-].[Na+] [sodium valproate]
[1]; 13-month follow-up
  seizure control after replacing zonisamide: prevented convulsions

## NC(=O)N1c2ccccc2C=Cc2ccccc21 [Carbamazepine]
[2]
  association with multiple myeloma: associated with development of MM

## CCC1(c2ccccc2)C(=O)NCNC1=O [primidone]
[2]
  association with multiple myeloma: associated with development of MM

## O=C1NC(=O)C(c2ccccc2)(c2ccccc2)N1 [phenyloin]
[2]
  association with multiple myeloma: implicated in several incidents of multiple myeloma

## NS(=O)(=O)Cc1noc2ccccc12 [zonisamide, 1,2-benzisoxazole-3-methanesulfonamide]
[3]
  carbonic anhydrase inhibiting activity, inhibition compared to acetazolamide: 1/50
[4]
  dopaminergic and serotonergic neurotransmission: facilitates both dopaminergic and serotonergic neurotransmission
[5]
  correlation between dosage or serum level and immunoglobulin levels: no significant correlation
[6]
  effect on voltage-dependent, transient inward currents (T-type Ca2+ currents): reduces voltage-dependent, transient inward currents
[7]; in vivo
  half-life: long half-life
[7]; upon reaching a stable dose or following dosage adjustment
  time required to achieve steady-state levels: up to two weeks
[8]
  neuronal or glial uptake of [3H]-GABA: without affecting
[1]; human, in vivo
  Bence-Jones protein in urine: not demonstrated
  M-protein concentration: > 3.5 g/dL
  bone marrow chromosomal analysis: normal karyotype of 46 XY
  diagnosis: smoldering multiple myeloma
  helper T cell count (CD4): normal
  peripheral blood examination: no cytopenia
  serum IgA: 40 mg/dL
  serum IgM: 38 mg/dL
  serum creatinine, calcium and beta2-microglobulin: not elevated
  serum immunoglobulin G (IgG): 3.68 g/dL
  serum protein immunoelectrophoresis: M-protein composed of IgG with a single lambda type of L-chain
[9]; cultured mouse spinal cord neurons
  postsynaptic GABA or glutamate responses: without affecting postsynaptic GABA or glutamate responses
[9]
  synaptically-driven electrical activity: suppresses synaptically-driven electrical activity
[10]
  effect on sodium channels: blocks sodium channels
[11]
  binding to GABA/benzodiazepine receptor ionophore complex: binds to the GABA/benzodiazepine receptor ionophore complex in an allosteric fashion
[12]
  liver (hepatic) enzyme induction: not known to be a hepatic enzyme inducer; also recorded: no liver enzyme inducing activity
